Assay results published in patent US9879058B2, “Use of compounds that selectively modulate astrocytic release of substances through hemichannels of connexins and pannexins, without influencing gap junctions, for the treatment of psychiatric disorders” (Universidad Andres Bello, priority 2012, dated 2018).
Entries after “also recorded” stand apart in the source; their conditions may differ. No end group written: not given here.

Test system: Sprague Dowley rats
Experiment: Auditory fear conditioning with microinfusion into the basolateral amygdala
Type: in vivo, rat
Description: A. Animals: All procedures involving animals were in accordance to NIH guidelines and with approval of the bioethical committee of the Universidad Andrés Bello. Sprague Dowley rats (˜60 d old, ˜250 g) were caged individually at 22° C., 12/12 h light/dark cycle. The rats remained in their home box throughout the study, and were removed only briefly for drug microinfusion. B. Drugs: TAT-Cx43L2 ([…] (SEQ ID NO: 1), LifeTein, South Plainfield, N.J., USA, >90% purity) was dissolved in PBS to yield final solutions of 1 mM, 100 μM, 10 μM, 1 μM or 100 nM. Unless stated otherwise, the concentration used for microinfusions of TAT-Cx43L2 was 1 mM. As a control, TAT-Cx43L2^H126K/I130N was used at 1 mM. Gap27 (AnaSpec, Fremont, Calif., USA, >95% purity) and Gap27 scramble were dissolved to a final concentration of 1 mM. For the recovery cocktail, 100 mM glutamate (Sigma), D-serine (200 nM), glutamine (100 mM), ATP (100 μM), lactate (10 mM) and glycine (100 nM) were diluted in sterile saline. C. Apparatus: All behavioral essays were performed in a sound attenuating cubicle. Conditioning and tone testing were conducted in different chambers. For conditioning, rats were placed in a Plexiglas chamber with a metal grid floor (40 cm×40 cm×40 cm). The chamber was dimly illuminated by a red light. For testing, rats were placed in a different Plexiglas chamber without the metal grid (60 cm×40 cm) dimly illuminated by a white light bulb. A video camera was mounted at the top of each chamber to allow digital recording throughout the experiments. D. Surgery and histology: Under ketamine/xylazine anesthesia ([…], respectively), rats were stereotaxically implanted with bilateral 22-gauge stainless steel cannulas aimed 1.0 mm above the basolateral amygdala (3.0 mm posterior to Bregma, 5.3 mm lateral to the midline, and 8.0 mm ventral to the skull surface (Paxinos, G., Watson, C. (1998). The Rat Brain in Stereotaxic Coordinates; Press A, editor. San Diego). The cannulas were fixed with acrylic dental cement and secured by 4 skull screws. A stylus was placed inside the guide cannula to prevent clogging. Rats were given at least 7 days to recover before experimental procedures began.
In all experiments, stylus was removed from the guide cannula, and a 28-gauge injection cannula was inserted through the guide cannula, extending 1.0 mm beyond its tip into the BLA. Drugs were infused slowly via the injection cannula, connected by PE20 tubing to Hamilton microsyringes driven by a microinfusion pump. Infusions were of 0.25 μl per hemisphere at a rate of 0.32 μl/min. Following drug infusion, injecting cannulaes were left in place for 10 minutes to allow drug diffusion away from the cannula tip. Cannula placement and maximal diffusion was verified by infusing 0.5 μl of India ink in a group of 5 rats. The maximal diffusion spread observed included only lateral and basal amygdala nuclei. At the end of all experiments, animals were anesthetized as above and perfused intracardially with saline, 4% buffered paraformaldehyde. Brains were extracted and postfixed in 30% sucrose until density equaled that of sucrose. […] Animals with histological lesions beyond the size of the cannula tip and guide cannula diameter were excluded from the analysis.
E. Behavioral procedures: The conditioning is based on the animal learning that a previously neutral stimulus (a conditioned stimulus, CS; e.g. an innocuous sound) becomes predictive of a stressful stimulus (unconditioned stimulus, US; e.g. footshock). In all of experiments, rats were habituated to handling during the 7 recovery days and also habituated to the training and testing chambers for 3 days, 10 min each day. On the conditioning day, the animals were left in the chamber for 3 minutes before beginning of the training. Each training session consisted of 3 CS-US pairings in 30 s intervals. […]

[1] = 1 mM into BLA 10 min before training

For “YGRKKRRQRRRDGANVDMHLKQIEIKKFKYGIEEHGK [TAT-Cx43L2, synthetic cell-permeable peptide corresponding to the Cx43L2 region (aa 119-144) of the cytoplasmic loop of Cx43]”, which “long term fear memory (freezing to tone) 24 h after training” value [1] is on record?
Its value is “strongly impaired fear conditioning memory consolidation; also recorded: complete amnesia”.

What about the “short term memory (freezing to tone between the 3 pairings during training)” value [1] of the same sequence?
The value was “not affected; also recorded: unaffected short term memory”.

What about the “concentration dependence of amnesic effect” value (microinfusion into BLA) of the same sequence?
Its value is “concentration dependent”.

What about the “lower concentration still capable of inducing amnesic effects” value (microinfusion into BLA) of the same sequence?
Its value is 10 nM.

And the “memory when injected 6 h after training” value (microinjection into BLA 6 h after learning)?
The value was “had no effects on memory when injected 6 h after training; also recorded: no memory deficits”.

What about the “learning capacity on retraining” value (retrained 48 h after the initial conditioning) of the same sequence?
The value was “recovered their capacity to learn; also recorded: recovered their learning capacity”.
